Results: patent US9932341B2, “Use of pyrazolopyrimidine derivatives for the treatment of PI3K-delta related disorders” (Incyte Corporation, priority 2013, dated 2018)
Where a name gives a salt, the structure may show the parent alone.

These molecules were tested against PI3Kδ (p110δ/p85α) (Homo sapiens (Human), UniProt O00329) (assay: PI3Kδ Scintillation Proximity Assay (Example A3)). Settings: 20 μM ATP, 20 μM PIP2, 4 nM PI3Kδ, read-out: PI3Kδ SPA IC50.
Chain of PI3Kδ (p110δ/p85α) (O00329 whole entry): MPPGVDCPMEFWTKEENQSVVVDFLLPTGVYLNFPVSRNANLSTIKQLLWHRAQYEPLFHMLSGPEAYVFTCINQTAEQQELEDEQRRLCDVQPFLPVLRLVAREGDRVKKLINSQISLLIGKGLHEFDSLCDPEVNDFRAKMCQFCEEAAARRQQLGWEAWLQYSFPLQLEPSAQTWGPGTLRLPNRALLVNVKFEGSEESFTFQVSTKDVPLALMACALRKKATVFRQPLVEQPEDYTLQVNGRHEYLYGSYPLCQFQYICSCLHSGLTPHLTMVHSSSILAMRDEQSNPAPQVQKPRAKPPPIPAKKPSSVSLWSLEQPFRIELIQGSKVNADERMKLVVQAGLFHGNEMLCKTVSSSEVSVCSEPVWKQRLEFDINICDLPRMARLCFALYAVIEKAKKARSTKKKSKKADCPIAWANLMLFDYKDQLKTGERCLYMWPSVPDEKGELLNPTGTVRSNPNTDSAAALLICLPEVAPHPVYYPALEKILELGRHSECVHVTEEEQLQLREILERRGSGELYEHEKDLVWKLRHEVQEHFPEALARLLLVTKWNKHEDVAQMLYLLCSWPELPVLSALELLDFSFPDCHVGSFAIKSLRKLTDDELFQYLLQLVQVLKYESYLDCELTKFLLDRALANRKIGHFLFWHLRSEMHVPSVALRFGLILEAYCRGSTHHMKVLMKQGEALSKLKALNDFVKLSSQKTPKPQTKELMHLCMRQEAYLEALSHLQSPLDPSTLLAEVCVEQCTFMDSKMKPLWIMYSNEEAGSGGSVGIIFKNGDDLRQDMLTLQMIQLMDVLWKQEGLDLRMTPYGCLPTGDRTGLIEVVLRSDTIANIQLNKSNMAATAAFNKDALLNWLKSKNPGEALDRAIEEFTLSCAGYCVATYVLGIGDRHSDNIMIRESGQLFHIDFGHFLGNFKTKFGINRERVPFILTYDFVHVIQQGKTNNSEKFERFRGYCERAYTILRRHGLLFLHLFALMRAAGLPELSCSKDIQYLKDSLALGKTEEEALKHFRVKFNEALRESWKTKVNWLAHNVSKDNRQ
Chain of PI3Kδ (p110δ/p85α) (P27986 whole entry partner): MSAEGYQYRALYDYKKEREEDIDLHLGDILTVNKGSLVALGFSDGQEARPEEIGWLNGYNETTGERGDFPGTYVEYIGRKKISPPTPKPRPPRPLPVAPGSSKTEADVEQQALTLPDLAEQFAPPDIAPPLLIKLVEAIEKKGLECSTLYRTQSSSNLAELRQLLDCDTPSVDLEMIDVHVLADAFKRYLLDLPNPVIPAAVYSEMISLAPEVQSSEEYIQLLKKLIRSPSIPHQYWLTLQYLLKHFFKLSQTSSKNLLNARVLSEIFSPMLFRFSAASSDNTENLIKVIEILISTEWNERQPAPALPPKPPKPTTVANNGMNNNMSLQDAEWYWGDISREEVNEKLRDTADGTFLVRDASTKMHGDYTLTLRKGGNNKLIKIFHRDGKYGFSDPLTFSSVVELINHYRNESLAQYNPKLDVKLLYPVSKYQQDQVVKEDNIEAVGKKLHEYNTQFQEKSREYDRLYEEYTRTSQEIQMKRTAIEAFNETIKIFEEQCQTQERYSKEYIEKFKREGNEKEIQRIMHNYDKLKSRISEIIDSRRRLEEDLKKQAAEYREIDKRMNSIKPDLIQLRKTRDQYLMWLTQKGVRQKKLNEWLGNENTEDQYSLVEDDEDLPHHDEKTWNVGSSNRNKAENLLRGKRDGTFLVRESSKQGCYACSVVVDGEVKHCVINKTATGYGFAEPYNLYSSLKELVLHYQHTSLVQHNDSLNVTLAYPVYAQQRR
Type: biochemical
Outline: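 SPA with 4 nM p110δ/p85α, 20 μM PIP2, 20 μM ATP plus [γ-^33P]ATP, in 20 mM MOPS pH 6.7, 10 mM MgCl2, 5 mM DTT, 0.03% CHAPS, 0.5% DMSO, room temperature. Stopped with EDTA/ATP, WGA SPA beads, overnight shaking, scintillation counting. IC50 from % control activity vs log concentration.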
CCOc1c(C(C)n2nc(C)c3c(N)ncnc32)cc(Cl)c(F)c1C1COC(=O)N1 (single isomer, unassigned) [Example 353, 4-{3-[1-(4-amino-3-methyl-1H-pyrazolo[3,4-d]pyrimidin-1-yl)ethyl]-5-chloro-2-ethoxy-6-fluorophenyl}-1,3-oxazolidin-2-one] showed an IC50 of over 500 nM. With CCOc1c(C(C)n2nc(C)c3c(N)ncnc32)cc(Cl)c(C#N)c1C1CN(C)C1 (single isomer, unassigned) [Example 213, 4-[1-(4-Amino-3-methyl-1H-pyrazolo[3,4-d]pyrimidin-1-yl)ethyl]-6-chloro-3-ethoxy-2-(1-methylazetidin-3-yl)benzonitrile] the IC50 was under 10 nM. COc1c(C(C)n2nc(C)c3c(N)ncnc32)cc(Cl)c(F)c1C1CN(C)C1 (centres unmarked) [Example 72] was tested, and the IC50 was under 10 nM. With COc1c(C(C)n2nc(C)c3c(N)ncnc32)cc(Cl)c(C)c1-c1ccc(OCCO)nc1 (single isomer, unassigned) [Example 188, 2-(5-(3-(1-(4-Amino-3-methyl-1H-pyrazolo[3,4-d]pyrimidin-1-yl)ethyl)-5-chloro-2-methoxy-6-methylphenyl)pyridin-2-yloxy)ethanol] the IC50 was under 10 nM. In the case of COc1c(C(C)n2nc(C)c3c(N)ncnc32)cc(Cl)c(C)c1C1CN(C)C1 (racemic) [Example 5, 1-{1-[5-chloro-2-methoxy-4-methyl-3-(1-methylazetidin-3-yl)phenyl]ethyl}-3-methyl-1H-pyrazolo[3,4-d]pyrimidin-4-amine], the IC50 is reported as under 10 nM. Molecule COc1c(C(C)n2nc(C)c3c(N)ncnc32)cc(Cl)c(C)c1-c1ccc(C(=O)N(C)C)c(F)c1 (single isomer, unassigned) [Example 21, 3′-[1-(4-Amino-3-methyl-1H-pyrazolo[3,4-d]pyrimidin-1-yl)ethyl]-5′-chloro-3-fluoro-2′-methoxy-N,N,6′-trimethylbiphenyl-4-carboxamide trifluoroacetate] has an IC50 of under 10 nM. COc1c(C(C)n2nc(C)c3c(N)ncnc32)cc(Cl)c(C)c1-c1ccc(C(=O)N(C)C)nc1 (centres unmarked) [Example 11, 5-{3-[1-(4-Amino-3-methyl-1H-pyrazolo[3,4-d]pyrimidin-1-yl)ethyl]-5-chloro-2-methoxy-6-methylphenyl}-N,N-dimethylpyridine-2-carboxamide bis(trifluoroacetate)] gave an IC50 of under 10 nM. For CCOc1c(C(C)n2nc(C)c3c(N)ncnc32)cc(Cl)c(C)c1C1CN(C[C@H](C)O)C1 (stereo partly drawn) [Example 96, (2S)-1-(3-{3-[1-(4-Amino-3-methyl-1H-pyrazolo[3,4-d]pyrimidin-1-yl)ethyl]-5-chloro-2-ethoxy-6-methylphenyl}azetidin-1-yl)propan-2-ol bis(trifluoroacetate)], the IC50 was under 10 nM. For COc1c(C(C)n2nc(C)c3c(N)ncnc32)cc(Cl)c(C)c1C1CN(CC(C)C)C1 (racemic) [Example 7, 1-{1-[5-Chloro-3-(1-isobutylazetidin-3-yl)-2-methoxy-4-methylphenyl]ethyl}-3-methyl-1H-pyrazolo[3,4-d]pyrimidin-4-amine], the IC50 was under 10 nM. Molecule COC(=O)N1CC(c2c(C#N)c(Cl)cc(C(C)n3nc(C)c4c(N)ncnc43)c2OC)C1 (single isomer, unassigned) [Example 289, Methyl 3-{3-[1-(4-amino-3-methyl-1H-pyrazolo[3,4-d]pyrimidin-1-yl)ethyl]-5-chloro-6-cyano-2-methoxyphenyl}azetidine-1-carboxylate] has an IC50 of under 10 nM. With CCOc1c(C(C)n2nc(C)c3c(N)ncnc32)cc(Cl)c(F)c1C1CN(CC(F)(F)F)C1 (racemic) [Example 141, 1-(1-{5-Chloro-2-ethoxy-4-fluoro-3-[1-(2,2,2-trifluoroethyl)azetidin-3-yl]phenyl}ethyl)-3-methyl-1H-pyrazolo[3,4-d]pyrimidin-4-amine] the IC50 was under 10 nM. For COc1c(C(C)n2nc(C)c3c(N)ncnc32)cc(Cl)c(C)c1C1CN(CC(C)(C)O)C1 (single isomer, unassigned) [Example 158, 1-(3-{3-[1-(4-Amino-3-methyl-1H-pyrazolo[3,4-d]pyrimidin-1-yl)ethyl]-5-chloro-2-methoxy-6-methylphenyl}azetidin-1-yl)-2-methylpropan-2-ol], the IC50 was under 10 nM. COc1c(C(C)n2nc(C)c3c(N)ncnc32)cc(Cl)c(C#N)c1C1CN(C(C)=O)C1 (single isomer, unassigned) [Example 281, 2-(1-Acetylazetidin-3-yl)-4-[1-(4-amino-3-methyl-1H-pyrazolo[3,4-d]pyrimidin-1-yl)ethyl]-6-chloro-3-methoxybenzonitrile] was tested, and the IC50 was under 10 nM. Molecule CCOc1c(C(C)n2nc(C)c3c(N)ncnc32)cc(Cl)c(C)c1C1CN(C(C)C)C1 (single isomer, unassigned) [Example 94, 1-{1-[5-Chloro-2-ethoxy-3-(1-isopropylazetidin-3-yl)-4-methylphenyl]ethyl}-3-methyl-1H-pyrazolo[3,4-d]pyrimidin-4-amine bis(trifluoroacetate)] has an IC50 of under 10 nM. COc1c([C@H](C)n2nc(C)c3c(N)ncnc32)cc(Cl)c(C#N)c1C1CN(C[C@@H](C)O)C1 [Example 362] was tested, and the IC50 was under 10 nM. Molecule CCOc1c(C(C)n2nc(C)c3c(N)ncnc32)cc(Cl)c(C)c1C1CN(CCO)C1 (racemic) [Example 95, 2-(3-{3-[1-(4-Amino-3-methyl-1H-pyrazolo[3,4-d]pyrimidin-1-yl)ethyl]-5-chloro-2-ethoxy-6-methylphenyl}azetidin-1-yl)ethanol bis(trifluoroacetate)] has an IC50 of under 10 nM. In the case of CCOc1c(C(C)n2nc(C)c3c(N)ncnc32)cc(C)c(C#N)c1C1CN(C(C)C)C1 (racemic) [Example 320, 4-[1-(4-amino-3-methyl-1H-pyrazolo[3,4-d]pyrimidin-1-yl)ethyl]-3-ethoxy-2-(1-isopropylazetidin-3-yl)-6-methylbenzonitrile], the IC50 is reported as under 10 nM. With CCOc1c(C(C)n2nc(C)c3c(N)ncnc32)cc(Cl)c(C#N)c1C1CN(CCO)C1 (single isomer, unassigned) [Example 219, 4-[1-(4-Amino-3-methyl-1H-pyrazolo[3,4-d]pyrimidin-1-yl)ethyl]-6-chloro-3-ethoxy-2-[1-(2-hydroxyethyl)azetidin-3-yl]benzonitrile] the IC50 was under 10 nM. With CCOc1c(C(C)n2cc(C)c3c(N)ncnc32)cc(Cl)c(C#N)c1C1CN(C(C)C)C1 (single isomer, unassigned) [Example 307, 4-[1-(4-Amino-5-methyl-7H-pyrrolo[2,3-d]pyrimidin-7-yl)ethyl]-6-chloro-3-ethoxy-2-(1-isopropylazetidin-3-yl)benzonitrile] the IC50 was under 10 nM. With CNC(=O)[C@@H](C)N1CC(c2c(C)c(Cl)cc(C(C)n3nc(C)c4c(N)ncnc43)c2OC)C1 (stereo partly drawn) [Example 110, (2R)-2-(3-{3-[1-(4-Amino-3-methyl-1H-pyrazolo[3,4-d]pyrimidin-1-yl)ethyl]-5-chloro-2-methoxy-6-methylphenyl}azetidin-1-yl)-N-methylpropanamide trifluoroacetate] the IC50 was under 10 nM. CCOc1c(C(C)n2nc(C)c3c(N)ncnc32)cc(Cl)c(F)c1C1CNC(=O)O1 (single isomer, unassigned) [Example 356, 5-{3-[1-(4-amino-3-methyl-1H-pyrazolo[3,4-d]pyrimidin-1-yl)ethyl]-5-chloro-2-ethoxy-6-fluorophenyl}-1,3-oxazolidin-2-one] showed an IC50 of 50 to 200 nM.

These molecules were tested on Pfeiffer human tumor xenograft model of diffuse large B-cell lymphoma (assay: Pfeiffer Model of Lymphoma (Example D)). Settings: 0.3 mg/kg oral twice daily for 14 days, SCID mice.
Type: in vivo
Procedure: Female SCID mice, (5 to 8 weeks of age, Charles River Laboratories, Wilmington, Mass.) were inoculated with 1×10^7 tumor cells (Pfeiffer, ATCC #CRL-2632, Manassas, Va.) and matrigel (BD Biosciences #354234) in 0.2 mL sterile saline. The inoculation was performed subcutaneously on the flank. Tumor tissue fragments (approximately 3 mm×3 mm) were collected 3 to 6 weeks after the inoculation of cultured cells and implanted subcutaneously in lieu of cellular inoculation. Tissue fragments were implanted as solid pieces using blunt-tip forceps. The treatment of tumor bearing mice was started 15 to 25 days after tumor inoculation, depending upon the tumor size. Animals were sorted to obtain roughly equivalent mean tumor volumes in each group. Minimum mean tumor volume in all groups was 150 mm3 on the first day of treatment and groups consisted of 7 animals. Experimental therapeutic agent, Example 347, was administered to mice orally (PO). Treatment frequency was 2 times daily for a minimum of 14 days for efficacy. The size of subcutaneous tumors was measured 2 to 3 times weekly using a digital caliper. The tumor volume was calculated by measuring the tumor in 2 dimensions and utilizing the equation: Volume=[Length×(Width2)]/2; where the larger number was length, and the smaller number width. If multiple tumors were formed, the final volume was the sum of the individual tumors subject to the same equation: eg, 2 tumors; Volume={[L1×(W1)2]/2}+{[L2×(W2)2]/2}. Effects on tumor growth were reported as percent tumor growth inhibition (% TGI). Percent TGI was calculated with the equation: (1−(Tx vol./control vol.))*100, where control volume was the vehicle or untreated tumor volume on a given day, and Tx volume was any treatment group tumor volume on that same day. Statistical differences between treatment and vehicle controls were assessed using ANOVA: Single Factor test.
With CCOc1c(C(C)n2nc(C)c3c(N)ncnc32)cc(Cl)c(F)c1C1CNC(=O)C1 (single isomer, unassigned) [Example 347, 4-{3-[1-(4-amino-3-methyl-1H-pyrazolo[3,4-d]pyrimidin-1-yl)ethyl]-5-chloro-2-ethoxy-6-fluorophenyl}pyrrolidin-2-one] the “percent tumor growth inhibition” value was 22%.

Same assay, conditions: 1 mg/kg oral twice daily for 14 days, SCID mice
With CCOc1c(C(C)n2nc(C)c3c(N)ncnc32)cc(Cl)c(F)c1C1CNC(=O)C1 (single isomer, unassigned) [Example 347, 4-{3-[1-(4-amino-3-methyl-1H-pyrazolo[3,4-d]pyrimidin-1-yl)ethyl]-5-chloro-2-ethoxy-6-fluorophenyl}pyrrolidin-2-one] the “percent tumor growth inhibition” value was 24%.

Same assay, conditions: 3 mg/kg oral twice daily for 14 days, SCID mice
CCOc1c(C(C)n2nc(C)c3c(N)ncnc32)cc(Cl)c(F)c1C1CNC(=O)C1 (single isomer, unassigned) [Example 347, 4-{3-[1-(4-amino-3-methyl-1H-pyrazolo[3,4-d]pyrimidin-1-yl)ethyl]-5-chloro-2-ethoxy-6-fluorophenyl}pyrrolidin-2-one] was tested, and the “percent tumor growth inhibition” value was 36%.

Same assay, conditions: 10 mg/kg oral twice daily for 14 days, SCID mice
For CCOc1c(C(C)n2nc(C)c3c(N)ncnc32)cc(Cl)c(F)c1C1CNC(=O)C1 (single isomer, unassigned) [Example 347, 4-{3-[1-(4-amino-3-methyl-1H-pyrazolo[3,4-d]pyrimidin-1-yl)ethyl]-5-chloro-2-ethoxy-6-fluorophenyl}pyrrolidin-2-one], the “percent tumor growth inhibition” value was 58%.

The molecules below were run on Pfeiffer cell line (diffuse large B cell lymphoma) (assay: Pfeiffer Cell Proliferation Assay (Example B2)). Settings: not given.
Type: cell-based, human
Procedure: Pfeiffer cell line (diffuse large B cell lymphoma) are purchased from ATCC (Manassas, Va.) and maintained in the culture medium recommended (RPMI and 10% FBS). To measure the anti-proliferation activity of the compounds, the Pfeiffer cells are plated with the culture medium (2×10^3 cells well per […]) into 96-well ultra-low binding plates (Corning, Corning, N.Y.), in the presence or absence of a concentration range of test compounds. After 3-4 days, [^3H]-thymidine (1 μCi/well) (PerkinElmer, Boston, Mass.) in PBS is then added to the cell culture for an additional 12 hours before the incorporated radioactivity is separated by filtration with water through GF/B filters (Packard Bioscience, Meriden, Conn.) and measured by liquid scintillation counting with a TopCount (Packard Bioscience).
For CCOc1c(C(C)n2nc(C)c3c(N)ncnc32)cc(Cl)c(F)c1C1CNC(=O)C1 (single isomer, unassigned) [Example 347, 4-{3-[1-(4-amino-3-methyl-1H-pyrazolo[3,4-d]pyrimidin-1-yl)ethyl]-5-chloro-2-ethoxy-6-fluorophenyl}pyrrolidin-2-one], the “anti-proliferative effects in vitro on Pfeiffer cancer cells” value was “sensitive”.
